Tested on: Stress protein genes
Experiment: DNA chip mRNA expression in yeast, stress protein genes (Table 6)
Assay type: cell-based, Saccharomyces cerevisiae S288C
Procedure: Yeast (Saccharomyces cerevisiae S288C (α SUC2mal mel gap2 CUP1)) were incubated at 25° C. on YPD medium (yeast extract 1%, polypepton 2%, glucose 2%). One of toxic chemical substances was added to the cells at logarithmic growth phase, and the cells were further incubated for two hours. Cells were cultured without any chemical substance in the same condition, and were used as control. Concentrations of the chemical substances were defined to inhibit the growth of the yeast but not lead to death.
After completion of the incubation, the culture was centrifuged to collect the cells. To the cells, sodium acetate buffer (50 mM sodium acetate, 10 mM EDTA, 1% SDS) was added, and the mixture was shaken at 65° C. for five minutes, followed by returning to room temperature, and obtaining the supernatant, of which the procedures were repeated two times. To the supernatant, ½ amount of a solution of phenol/chloroform was added, and the mixture was centrifuged to give a supernatant, which was added with an equal amount of chloroform, and the mixture was centrifuged to give a supernatant. To the supernatant, an equal amount of isopropanol containing 0.3 M sodium acetate was added, and the mixture was allowed to stand at room temperature for 30 minutes, after which the mixture was centrifuged to give a sediment of the whole RNAs. Seventy % ethanol was added to the sediment, and the mixture was again centrifuged to give a sediment, which was then dried and dissolved in water. mRNA was isolated from the whole RNAs as followings. In view of the fact that a poly A chain is attached to the 3′ terminus of mRNA, a polynucleotide having a poly T structure which was immobilized on the surface of latex beads was used to trap the mRNA, and then the mRNA was washed and eluted with spine column (Oligotex-dT30<Super>mRNA Purification Kit, Takara). Reverse transcription of the mRNA was conducted with a reverse transcriptase (Super Script II Reverse Transcriptase; catalogue No. 18064-014, GibcoBRL) using fluorescence-labeled nucleotides to give cDNAs that were introduced with Cy3-dUTP or Cy5-dUTP during the reverse transcription.
The labeled cDNAs were dissolved in TE buffer (10mM Tris-HCl/1 mM EDTA, pH8.0), and the solution was dropped on the DNA chip containing the whole genes of yeast (DNA Chip Research Inc. Japan) so that the cDNAs were hybridized on the DNA chip at 65° C. for over 12 hours. The fluoresces intensity of the DNA chip was read with a scanner, and the ratio relative to the fluorescence intensity resulting from the absence of chemical substance was estimated as the following, which is shown in Tables 1 to 9: […]

## O=[N+]([O-])c1cc[n+]([O-])c2ccccc12 [(5), 4-nitroquinolin-N-oxide]
Yeast gene YIL033C
  The level of expressed mRNA in the presence of chemical substance/The level of expressed mRNA in the absence of chemical substance: 0.7
Yeast gene YIR037W
  The level of expressed mRNA in the presence of chemical substance/The level of expressed mRNA in the absence of chemical substance: 0.6
Yeast gene YIR038C
  The level of expressed mRNA in the presence of chemical substance/The level of expressed mRNA in the absence of chemical substance: 0.7
Yeast gene YJL128C
  The level of expressed mRNA in the presence of chemical substance/The level of expressed mRNA in the absence of chemical substance: 1.2
Yeast gene YJL158C
  The level of expressed mRNA in the presence of chemical substance/The level of expressed mRNA in the absence of chemical substance: 1.4
Yeast gene YJL159W
  The level of expressed mRNA in the presence of chemical substance/The level of expressed mRNA in the absence of chemical substance: 1.0
Yeast gene YJL165C
  The level of expressed mRNA in the presence of chemical substance/The level of expressed mRNA in the absence of chemical substance: 1.1
Yeast gene YJR045C
  The level of expressed mRNA in the presence of chemical substance/The level of expressed mRNA in the absence of chemical substance: 0.5
Yeast gene YJR090C
  The level of expressed mRNA in the presence of chemical substance/The level of expressed mRNA in the absence of chemical substance: 1.2
Yeast gene YKL161C
  The level of expressed mRNA in the presence of chemical substance/The level of expressed mRNA in the absence of chemical substance: 1.4
Yeast gene YKL163W
  The level of expressed mRNA in the presence of chemical substance/The level of expressed mRNA in the absence of chemical substance: 0.6
Yeast gene YKL164C
  The level of expressed mRNA in the presence of chemical substance/The level of expressed mRNA in the absence of chemical substance: 1.1
Yeast gene YKL210W
  The level of expressed mRNA in the presence of chemical substance/The level of expressed mRNA in the absence of chemical substance: 0.8
Yeast gene YKR053C
  The level of expressed mRNA in the presence of chemical substance/The level of expressed mRNA in the absence of chemical substance: 1.0
Yeast gene YLL024C
  The level of expressed mRNA in the presence of chemical substance/The level of expressed mRNA in the absence of chemical substance: 0.7
Yeast gene YLL026W
  The level of expressed mRNA in the presence of chemical substance/The level of expressed mRNA in the absence of chemical substance: 0.9
Yeast gene YLL039C
  The level of expressed mRNA in the presence of chemical substance/The level of expressed mRNA in the absence of chemical substance: 0.9
Yeast gene YLL060C
  The level of expressed mRNA in the presence of chemical substance/The level of expressed mRNA in the absence of chemical substance: 0.9
Yeast gene YLR006C
  The level of expressed mRNA in the presence of chemical substance/The level of expressed mRNA in the absence of chemical substance: 1.6
Yeast gene YLR109W
  The level of expressed mRNA in the presence of chemical substance/The level of expressed mRNA in the absence of chemical substance: 1.3
Yeast gene YLR259C
  The level of expressed mRNA in the presence of chemical substance/The level of expressed mRNA in the absence of chemical substance: 1.1
Yeast gene YML007W
  The level of expressed mRNA in the presence of chemical substance/The level of expressed mRNA in the absence of chemical substance: 1.0
Yeast gene YML070W
  The level of expressed mRNA in the presence of chemical substance/The level of expressed mRNA in the absence of chemical substance: 1.4
Yeast gene YMR021C
  The level of expressed mRNA in the presence of chemical substance/The level of expressed mRNA in the absence of chemical substance: 1.6
Yeast gene YMR173W
  The level of expressed mRNA in the presence of chemical substance/The level of expressed mRNA in the absence of chemical substance: 1.1
Yeast gene YMR186W
  The level of expressed mRNA in the presence of chemical substance/The level of expressed mRNA in the absence of chemical substance: 1.3
Yeast gene YNL064C
  The level of expressed mRNA in the presence of chemical substance/The level of expressed mRNA in the absence of chemical substance: 0.9
Yeast gene YNL160W
  The level of expressed mRNA in the presence of chemical substance/The level of expressed mRNA in the absence of chemical substance: 1.3
Yeast gene YNL241C
  The level of expressed mRNA in the presence of chemical substance/The level of expressed mRNA in the absence of chemical substance: 0.8
Yeast gene YNR076W
  The level of expressed mRNA in the presence of chemical substance/The level of expressed mRNA in the absence of chemical substance: 1.2
Yeast gene YOL064C
  The level of expressed mRNA in the presence of chemical substance/The level of expressed mRNA in the absence of chemical substance: 0.9
Yeast gene YOL161C
  The level of expressed mRNA in the presence of chemical substance/The level of expressed mRNA in the absence of chemical substance: 0.9
Yeast gene YOR008C
  The level of expressed mRNA in the presence of chemical substance/The level of expressed mRNA in the absence of chemical substance: 1.4
Yeast gene YOR009W
  The level of expressed mRNA in the presence of chemical substance/The level of expressed mRNA in the absence of chemical substance: 0.8
Yeast gene YOR010C
  The level of expressed mRNA in the presence of chemical substance/The level of expressed mRNA in the absence of chemical substance: 1.2
Yeast gene YOR027W
  The level of expressed mRNA in the presence of chemical substance/The level of expressed mRNA in the absence of chemical substance: 1.0
Yeast gene YOR208W
  The level of expressed mRNA in the presence of chemical substance/The level of expressed mRNA in the absence of chemical substance: 1.4
Yeast gene YPL059W
  The level of expressed mRNA in the presence of chemical substance/The level of expressed mRNA in the absence of chemical substance: 1.2
Yeast gene YPL106C
  The level of expressed mRNA in the presence of chemical substance/The level of expressed mRNA in the absence of chemical substance: 1.2
Yeast gene YPL140C
  The level of expressed mRNA in the presence of chemical substance/The level of expressed mRNA in the absence of chemical substance: 0.8
Yeast gene YPL194W
  The level of expressed mRNA in the presence of chemical substance/The level of expressed mRNA in the absence of chemical substance: 1.3
Yeast gene YPL223C
  The level of expressed mRNA in the presence of chemical substance/The level of expressed mRNA in the absence of chemical substance: 0.9
Yeast gene YPL240C
  The level of expressed mRNA in the presence of chemical substance/The level of expressed mRNA in the absence of chemical substance: 1.3
Yeast gene YPR005C
  The level of expressed mRNA in the presence of chemical substance/The level of expressed mRNA in the absence of chemical substance: 1.0
Yeast gene YPR026W
  The level of expressed mRNA in the presence of chemical substance/The level of expressed mRNA in the absence of chemical substance: 0.8

Reference: patent publication US8192962B2, “Processes for detecting toxic substances” (Daikin Industries, Ltd., priority 2001, dated 2012)
